Measurements published in US12485191B2, “Radiopharmaceuticals and methods of use thereof” (BOARD OF REGENTS OF THE UNIVERSITY OF NEBRASKA, priority 2017, dated 2025).
Marks after values point to notes of the source that are not given here.

Assays:
HT-29 xenograft tumors = experiment: Biodistribution study in HT-29 xenograft mouse model; type: in vivo, mice
Procedure: Female SCID mice (5 weeks of age) received subcutaneous injections of HT-29 cells (5×10^6) suspended in Matrigel® into the flanks. When the tumor size reached 80 mm^3 (two weeks after injection), the mice were randomized into three groups and intravenously injected with 10 μCi (0.37 MBq) of the purified ^177Lu labeled conjugates via tail vein. The mice were sacrificed and the tissues were excised at 4, 24, and 72 hours post-injection time points. The blood, tumor, and excised tissues were weighed. The radioactivity for each sample was measured using a gamma counter. The percentage injected dose per gram (% ID/g) and the radioactivity ratios between tumor and non-targeted tissues were calculated.

[1] = biological target: T1, cathepsin B (human Liver) (Homo sapiens, UniProt P07858); experiment: Inhibition constant (Ki) of the compounds to cathepsin B; type: biochemical; details: read-out: CatB K1
T1 construct: from tissue; host or cells: human liver
Procedure: Determination of the Km and Vmax of Cathepsin B for Z-Arg-Arg-AMC
The solution of cathepsin B (human Liver) (50 μL, 2 nM) in assay buffer used above was mixed with 50 μL of solution of substrate Z-Arg-Arg-AMC in the assay buffer at different concentrations ([S]) (25 μM, 50 μM, 100 μM, 500 μM and 1 mM). The mixture was incubated at 37° C. and the fluorescence of the liberated aminomethylcoumarin at 460 nM using 355 nm excitation was measured at predetermined time points (0, 2, 4, 6, 8, and 10 minutes). The fluorescence intensity was plotted versus time and the reaction rates (v0) were calculated as the slope of the trend lines obtained by liner regression. Km and maximum reaction rate (Vmax-obs) was determined from the equation v0=Vmax[S]/(Km+[S]) and solved by nonlinear regression using GraphPad Prism 5. All measurements were in biological triplicate.
Determination of the Inhibition Constant (Ki) of the Compounds to Cathepsin B
The cathepsin B (human Liver) in assay buffer (25 μL) was mixed with the conjugate (25 μL) in 96-well plate. After the solution was mixed, the Z-Arg-Arg-AMC in assay buffer (50 μL) was added to the well, yielding a final cathepsin B concentration of 1 nM, conjugate concentration ([C]) of 15 nM or 5 μM, and substrate concentration ([S]) of 25 μM, 50 μM, 100 μM, 500 μM and 1 mM. The mixture was incubated at 37° C. and the fluorescence of the liberated aminomethylcoumarin at 460 nM using 355 nm excitation was measured at predetermined time points (0, 2, 4, 6, 8, and 10 minutes). The fluorescence intensity was plotted versus time with observed reaction rates (v0-obs) calculated as the slope of the trend lines obtained by liner regression. The observed rate constant (Kobs) and observed maximum reaction rate (Vmax-obs) was determined from the equation v0-obs=Vmax-obs [S]/(Kobs+[S]) and solved by nonlinear regression using GraphPad Prism 5. The Ki was calculated from the equation Kobs=Km (1+[C]/Ki). All measurements were in biological triplicate.

[2] = Distribution coefficient (Log D7.4) of the conjugates; type: physicochemical
Procedure: Distribution Coefficient (Log D7.4) of the Conjugates The distribution coefficient was determined for each ^177Lu-labeled conjugate. In a 1.5 mL centrifuge tube, 0.5 mL of 1-octanol was added to 0.5 mL of PBS (pH 7.4) containing the radiolabeled peptide (500,000 cpm). The solution was vigorously vortexed for 2 minutes at room temperature and subsequently centrifuged to yield two immiscible layers. The radioactivity of the aliquots (100 μL) taken from each layer were quantified by the gamma counter and the Log D7.4 for each conjugates was calculated.

NTSR1 = biological target: T2, NTSR1 (Homo sapiens, UniProt P30989); experiment: In vitro competitive neurotensin receptor binding in HT-29 cells vs 177Lu-N1; details: unlabeled conjugates
T2 construct: endogenous in cells; host or cells: HT-29 human colon cancer cells (ATCC)
T2 sequence (P30989 whole entry): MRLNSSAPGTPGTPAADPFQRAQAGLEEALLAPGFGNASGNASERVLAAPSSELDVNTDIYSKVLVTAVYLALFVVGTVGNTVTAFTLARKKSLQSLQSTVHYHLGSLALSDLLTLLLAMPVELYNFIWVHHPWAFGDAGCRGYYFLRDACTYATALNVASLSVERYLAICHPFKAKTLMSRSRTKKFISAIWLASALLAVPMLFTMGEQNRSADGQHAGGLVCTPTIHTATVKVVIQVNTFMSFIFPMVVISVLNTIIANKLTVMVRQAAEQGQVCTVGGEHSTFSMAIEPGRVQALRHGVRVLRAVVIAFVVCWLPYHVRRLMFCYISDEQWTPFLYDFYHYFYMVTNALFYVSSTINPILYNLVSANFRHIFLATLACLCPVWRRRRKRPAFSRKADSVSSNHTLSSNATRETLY
Procedure: In Vitro Competitive Neurotensin Receptor Binding Studies
The IC50 for the unlabeled conjugates binding to the neurotensin receptors was determined using the HT-29 human colon cancer cell line. […]. Med. Biol., 42:816), served as the competitive radioligand for comparing the relative binding affinities of the conjugates. HT-29 cells (˜1×10^6) suspended in 100 μL of McCoy's 5A medium (pH 7.4, 4.8 mg/mL HEPES, and 2 mg/mL BSA) were incubated with 177Lu-N1 (100,000 cpm, 100 μL) at 37° C. for 45 minutes in the presence of the conjugates with predetermined concentrations (0.5 nM-1 μM) in 100 μL of medium. At the end of the incubation, the cells were centrifuged, aspirated, and washed with fresh medium (5×500 μL). The cell-associated radioactivity was measured using gamma counter and the IC50 values determined by nonlinear regression using GraphPad Prism 5. All measurements were in biological triplicate.

PC-3 tumor = details: mouse, in vivo
CatB = CatB (Homo sapiens, UniProt P07858); experiment: CatB inhibition of GRPR-targeted agents; type: biochemical
Procedure: The Inhibition of Cathepsin B Activity by the Conjugates The phosphate buffer (0.1 M, pH=5.8) containing EDTA (1 mM), DTT (2.7 mM), and Brij®35 (0.03%) was prepared before the assay. […] The solution of cathepsin B (human Liver) in assay buffer (50 μL, 0.544 nM) was added to the mixture which was further incubated at 37° C. for 20 minutes. The fluorescence of the liberated aminomethylcoumarin at 460 nM using 355 nm excitation was measured and the IC50 of the cathepsin B inhibition versus the samples without the inhibitor was determined by nonlinear regression using GraphPad Prism 5.

[3] = determined by radiometric analysis, 177Lu-labeled conjugate

## Cc1cc(C)c(C(=O)OCC(=O)[C@H](CCCCNC(=O)CNC(=O)[C@@H](CO)NC(=O)[C@@H](CO)NC(=O)[C@@H](CO)NC(=O)Cn2cc(C[C@H](NC(=O)CN3CCN(CC(=O)O)CCN(CC(=O)O)CCN(CC(=O)O)CC3)C(=O)N[C@H](CO)C(=O)N[C@H](CO)C(=O)N[C@H](CO)C(=O)N[C@@H](CCCCN)C(=O)N3CCC[C@H]3C(=O)N(C)[C@@H](CCCNC(=N)N)C(=O)N[C@@H](CCCNC(=N)N)C(=O)N3CCC[C@H]3C(=O)N[C@@H](Cc3c(C)cc(O)cc3C)C(=O)N[C@H](C(=O)N[C@@H](CC(C)C)C(=O)O)C(C)(C)C)nn2)NC(=O)[C@H](Cc2ccccc2)NC(=O)OCc2ccccc2)c(C)c1 (177Lu complex, metal not drawn) [Compound 2f]
HT-29 xenograft tumors; HT-29 xenograft mice
  retention in liver and kidney compared to 3b (in words): significantly increased retention
HT-29 xenograft tumors; HT-29 xenograft, after 24 hours
  increase in retention in the tumors compared to control 3b: nearly two-fold increase
HT-29 xenograft tumors; HT-29 xenograft, by 24 hours
  increase in tumor uptake: 25%

## Cc1cc(C)c(C(=O)OCC(=O)[C@H](CCCCn2cc(C[C@H](NC(=O)CN3CCN(CC(=O)O)CCN(CC(=O)O)CCN(CC(=O)O)CC3)C(=O)NCCC(=O)N[C@@H](CCCCN)C(=O)N3CCC[C@H]3C(=O)N(C)[C@@H](CCCNC(=N)N)C(=O)N[C@@H](CCCNC(=N)N)C(=O)N3CCC[C@H]3C(=O)N[C@@H](Cc3c(C)cc(O)cc3C)C(=O)N[C@H](C(=O)N[C@@H](CC(C)C)C(=O)O)C(C)(C)C)nn2)NC(=O)[C@H](Cc2ccccc2)NC(=O)OCc2ccccc2)c(C)c1 [Compound 2a]
[1]
  Ki: 25 ± 4 nM
[2]; [3]
  logD7.4: −1.46 ± 0.02^b
NTSR1
  IC50: 20 ± 2 nM

## Cc1cc(C)c(C(=O)OCC(=O)[C@H](CCCCNC(=O)Cn2cc(C[C@H](NC(=O)CN3CCN(CC(=O)O)CCN(CC(=O)O)CCN(CC(=O)O)CC3)C(=O)NCCC(=O)N[C@@H](CCCCN)C(=O)N3CCC[C@H]3C(=O)N(C)[C@@H](CCCNC(=N)N)C(=O)N[C@@H](CCCNC(=N)N)C(=O)N3CCC[C@H]3C(=O)N[C@@H](Cc3c(C)cc(O)cc3C)C(=O)N[C@H](C(=O)N[C@@H](CC(C)C)C(=O)O)C(C)(C)C)nn2)NC(=O)[C@H](Cc2ccccc2)NC(=O)OCc2ccccc2)c(C)c1 [Compound 2b]
[1]
  Ki: 26 ± 5 nM
[2]; [3]
  logD7.4: −1.49 ± 0.02^b
NTSR1
  IC50: 22 ± 2 nM

## Cc1cc(C)c(C(=O)OCC(=O)[C@H](CCCCNC(=O)CNC(=O)[C@@H](CO)NC(=O)[C@@H](CO)NC(=O)[C@@H](CO)NC(=O)Cn2cc(C[C@H](NC(=O)CN3CCN(CC(=O)O)CCN(CC(=O)O)CCN(CC(=O)O)CC3)C(=O)NCCC(=O)N[C@@H](CCCCN)C(=O)N3CCC[C@H]3C(=O)N(C)[C@@H](CCCNC(=N)N)C(=O)N[C@@H](CCCNC(=N)N)C(=O)N3CCC[C@H]3C(=O)N[C@@H](Cc3c(C)cc(O)cc3C)C(=O)N[C@H](C(=O)N[C@@H](CC(C)C)C(=O)O)C(C)(C)C)nn2)NC(=O)[C@H](Cc2ccccc2)NC(=O)OCc2ccccc2)c(C)c1 [Compound 2d]
[1]
  Ki: 73 ± 8 nM
[2]; [3]
  logD7.4: −1.79 ± 0.06^b
NTSR1
  IC50: 20 ± 3 nM

## Cc1cc(C)c(C(=O)OCC(=O)[C@H](CCCCNC(=O)CNC(=O)[C@@H](CO)NC(=O)[C@@H](CO)NC(=O)[C@@H](CO)NC(=O)Cn2cc(C[C@H](NC(=O)CN3CCN(CC(=O)O)CCN(CC(=O)O)CCN(CC(=O)O)CC3)C(=O)N[C@H](CO)C(=O)N[C@H](CO)C(=O)N[C@H](CO)C(=O)N[C@@H](CCCCN)C(=O)N3CCC[C@H]3C(=O)N(C)[C@@H](CCCNC(=N)N)C(=O)N[C@@H](CCCNC(=N)N)C(=O)N3CCC[C@H]3C(=O)N[C@@H](Cc3c(C)cc(O)cc3C)C(=O)N[C@H](C(=O)N[C@@H](CC(C)C)C(=O)O)C(C)(C)C)nn2)NC(=O)[C@H](Cc2ccccc2)NC(=O)OCc2ccccc2)c(C)c1 [Compound 2f]
[1]
  Ki: 50 ± 13 nM
NTSR1
  IC50: 18 ± 2 nM

## CC(C)C[C@H](NC(=O)CCC(=O)O)C(=O)N[C@@H](CCCNC(=N)N)C(=O)NCCn1cc(C[C@H](NC(=O)CN2CCN(CC(=O)O)CCN(CC(=O)O)CCN(CC(=O)O)CC2)C(=O)NCCOCCOCCOCCOCCC(=O)N[C@H](Cc2ccccc2)C(=O)N[C@@H](CCC(N)=O)C(=O)N[C@@H](Cc2c[nH]c3ccccc23)C(=O)N[C@@H](C)C(=O)N[C@H](C(=O)NCC(=O)N[C@@H](Cc2c[nH]cn2)C(=O)N[C@@H](CC(C)C)[C@@H](O)CC(=O)N[C@H](CC(C)C)C(N)=O)C(C)C)nn1 [^177Lu-C-ANT, metal not drawn]
PC-3 tumor
  tumor retention: 15%
CatB
  inhibition of catB (in words): no inhibition
[2]; GRPR-targeted agents
  logD7.4: −1.9 ± 0.1
